Counter-ions that a name gives are not always drawn.
What was measured:
Escherichia coli = assay: Enzyme reaction of bacteria on m-TECB based agar media in microtiter plates, read visually by colour; format: cell-based
Excerpt: (§1) Enzyme activity was detected on the m-TEC medium of Dufour et al. (Dufour, A.P., E.R. Strickland and V.J. Cabelli. 1981. Membrane filter method for enumerating Eseherichia coli. Appl. Envion. Microbiol. 41: 1152-1158) prepared with the following modifications: bromocresol purple, bromophenol red and lactose were omitted; the modified m-TEC medium contained (g/1 proteose peptone No. 3, 5.0g; yeast extract 3.0g; glycerol 10.0g; NaCl 7.5g; K2HPO4 3.3g; KH2PO4 1.0g; sodium lauryl sulfate 0.2g; sodium deoxycholate 0.10g and agar 15.0g. The medium was autoclaved for 15 minutes at 121°C. The following chemicals, purchased from the Sigma Chemical Company, St.Louis. Mo., were added separately to the modified m-TEC medium after autoclaving and cooling to 50°C - 60°C: para-nitrophenyl-β- ? -glucuronide 400 mg/l; indoxyl-β- ? -glucoside 250 mg/l. Indoxyl-β- ? -glucuronide, prepared as described in Example 8, was added at 350-400 mg/l. The four agar media used in this study will be referred to as follows: modified m-TEC as m-TECB medium; the formulations of indoxyl-β-D -glucuronide as IGA, para-nitrophenyl-β-D-glucuronide as PNGA, and indoxyl-β-D -glucoside (indican) as IA media.
(§2) In this experiment, four organisms were tested for β- D -glucuronidase and β- D -glucosidase activity: American Type Culture Collection (ATCC) strains Escherichia Coli 35218 and Klebsiella pneumonia 13883; environmental isolates that have been characterized in our laboratory, Escherichia coli 83-17350 and Klebsiella pneumonia PHL.
(§3) A series of m-TECB agar basal media microtiter plates were prepared, using the m-TECB base media described in Example 9, and indoxyl-β- D -glucuronide, p-nitrophenyl-β- D -glucuronide or indoxyl-β-D-glucoside was added to respective plates. Specific bacteria from controlled sources, described above, were applied to the plates and incubated at 45°C for 16 2 hours.

Klebsiella pneumonia = assay: as above; format: cell-based; conditions: K. pneumonia
Excerpt: as §1, §2, §3

| colour / reactivity (Klebsiella pneumonia) | Compound | colour / reactivity (Escherichia coli; Environmental and ATCC strains of E.coli) | hydrolysis by the glucuronidase activity of E. coli (Escherichia coli) |
| --- | --- | --- | --- |
| blue colour | OC[C@H]1O[C@@H](Oc2c[nH]c3ccccc23)[C@H](O)[C@@H](O)[C@@H]1O [indican, indoxyl-β-D -glucoside] | no reactivity |  |
|  | O=C(O)[C@H]1O[C@@H](Oc2c[nH]c3ccccc23)[C@H](O)[C@@H](O)[C@@H]1O [indoxyl-β- D -glucuronide, Indoxyl-β-D -Glucuronide Sodium Salt] |  | readily and specifically hydrolysed |

Reference: patent publication EP0284725A2, “Indoxyl-beta-d-glucuronide and method for making” (QUEEN'S UNIVERSITY AT KINGSTON, priority 1987, dated 1988)
